Results as given in patent US6930131B2, “Aryl substituted 3-ethoxy phenyl trifluoromethane sulfonamides for the treatment of non-insulin dependent diabetes mellitus (NIDDM)” (Wyeth, priority 2002, dated 2005).

Assays:
[1] = test system: Hepatocytes Isolated and Cultured from Obese Zucker (fa/fa) Rats; experiment: Inhibition of glucose output from hepatocytes isolated and cultured from obese Zucker (fa/fa) rats; type: cell-based, rat; conditions: Rattus norvegicus, Hepatocyte; inhibition of glucose output vs glucagon stimulated cultured hepatocytes
Method: Inhibition of Glucose Output from Hepatocytes Isolated and Cultured from Obese Zucker (fa/fa) Rats and their Lean Controls
Culturing of Hepatocytes: Isolated hepatocytes were plated on 12 well rat-tail collagen coated plates at a cell density of 5×10(5) cells/ml (approximately 1 ml of cell suspension per well). Following a one hour attachment period in which plates were incubated in a CO2 incubator at 37 deg C. (95% O2, 5% CO2), the supernatant containing unattached hepatocytes was removed and replaced with fresh media (1 ml/well) containing 1 μM dexamethasone and 100 pM insulin. Cells were maintained at 37 deg C. for 48 hours in a 95% O2, 5% CO2 environment. At the end of the first 24 hours, the media was aspirated off of the wells and replaced with fresh media containing the same concentrations of dexamethasone and insulin as described earlier. Treatment with Drugs and Assessment of Glucose Output: Drugs were routinely added with fresh media 24 hours after the initial attachment period. Eighteen hours later, media was aspirated and 500 μl of fresh Hank's buffer, Buffer D (glucose-free) supplemented with hormones, gluconeogenic substrates and drug(s) was added to each well and incubated for 4 hours. At the end of the 4 hour incubation, media from each well was removed and assayed for glucose content using the hexokinase/glucose-6-phosphate dehydrogenase coupled assay on the Boehringer Mannheim model 911 auto analyzer. Glucose concentration was expressed as μg/ml. Three of the plates from each treated group were frozen for subsequent determination of protein content. Two plates from each treatment group were used to assess the cytotoxicity of drug(s) and other agents as determined by the MTT (tetrazolium) dye reduction method (see below).
Assessment of Cytotoxicity using MTT Dye Reduction Assay: Two plates with no insulin treatment and two plates with 10^−8 M insulin treatment were used for the MTT dye reduction assay. Following removal of media from the plates for measurement of glucose output, wells were washed once with 1 ml of Hank's buffer (0.5% BSA). Aliquots of […] of Hank's buffer (1.1% BSA) and […] MTT solution (5 mg MTT/ml in phosphate buffered saline (PBS) filtered through 0.45 micron syringe filter) were added to each well. Plates were incubated for one hour at 37 deg C. After one hour incubation, the MTT dye solution was aspirated off and […] of HCL/isopropanol solution (8 ml of 1 N HCL and 192 ml of isopropanol) was added to each well. HCL/isopropanol solution was mixed by drawing liquid into a pipetman 2 to 3 times and then carefully transferred into a 96 well flat bottom plate. The 96 well plate was read on a plate reader (UV max kinetic microplate reader, Molecular Devices) at 570 nm test wavelength and 650 nm reference wavelength. The results were expressed as % inhibition from the control (lactate and glucagon treated) well.
Protein test procedure: Three plates with no insulin treatment and three plates with 10^−8 M insulin treatment were used for protein determination. After supernatant has been removed for determination of glucose output the plates were frozen and stored at −20 deg C. until ready to assay for protein content. Prior to determination of protein the plates were defrosted at room temperature for 15 minutes. An aliquot of 1 ml 0.1 N NaOH was added to each well. Plates were incubated at 4 deg C. overnight. Solutions for measurement of protein content were mixed by pipetting the NaOH solution up and down several time with a 1 ml pipette and then transferring to a small polyethylene tube. Protein determination was based on that of the Pierce BCA protein assay protocol (Pierce cat. no. 23223). A set of protein standards (0.2, 0.4, 0.6, 0.8, and 1 mg/ml BSA) was prepared by serial dilution of 1 mg/ml bovine serum albumin with 0.1 N NaOH, and 40 μl of each standard, or control blank was pipetted into a 96-well plate in duplicate. Each unknown protein sample (40 μl) was tested in triplicate. […]

ob/ob (C57 B1/6J) mice [2] = experiment: Hypoglycemic effect in diabetic ob/ob mice; type: in vivo, mouse
Method: Hypoglycemic Effect in Diabetic OB/OB Mice
Procedure: In each study, male or female ob/ob (C57 B1/6J) mice and their mean litermates (ob/+ or +/+, Jackson Laboratories) ages 2 to 5 months (10 to 65 g) were randomized according to plasma glucose into 4 groups of 10 mice. The mice were housed 5 per cage and were maintained on normal rodent chow with water ad libitum. Mice receive compound daily by gavage (suspended in 0.5 ml of 0.5% methyl cellulose); dissolved in the drinking water; or admixed in the diet. The dose of compounds given ranges from 2.5 to 200 mg/kg body weight/day. Body weight of fed animals was measured at the beginning of each week and doses for the entire week were calculated using this weight and were expressed in terms of the active moiety of the compound. Control mice receive vehicle only. […]
Measurements: The plasma was isolated by centrifugation and the concentration of glucose was measured enzymatically on an Abbott V. P. Analyzer and the plasma concentration of insulin was determined by radioimmunoassay (Heding, 1972)
Analysis of variance followed by Dunnett's Comparison Test (one-tailed) was used to estimate the significant difference between the plasma glucose values from the control group and the individual compound treated groups (CMS SAS Release 5.18). A compound will be considered active if the difference has a p<0.05.

ob/ob (C57 B1/6J) mice [3] = conditions: reference compound, 20 mg/kg/day; cited from earlier work

## O=S(=O)(Nc1cccc(CCOCc2ccc(-c3ccc(Cl)c(Cl)c3)cc2)c1)C(F)(F)F [Example 6, N-{3-[2-(3′,4′-Dichloro-biphenyl-4-ylmethoxy)-ethyl]-phenyl}-C,C,C-trifluoro-methanesulfonamide]
other
  melting point: 74 to 75 °C
[1]
  IC50: 2.3 µM
ob/ob (C57 B1/6J) mice [2]; 5 mg/kg p.o.
  Reduction in Plasma Glucose Day 1 (6 hr) p.o.: −16%
  Reduction in Plasma Glucose Day 3 (6 hr) p.o.: −24%

## O=S(=O)(Nc1cccc(CCOCc2ccc(-c3ccc(Cl)cc3)cc2)c1)C(F)(F)F [Example 7, N-{3-[2-(4′-Chloro-biphenyl-4-ylmethoxy)-ethyl]-phenyl}-C,C,C-trifluoromethane sulfonamide]
other
  melting point: 69 to 70 °C
[1]
  IC50: 2.5 µM
ob/ob (C57 B1/6J) mice [2]; 5 mg/kg p.o.
  Reduction in Plasma Glucose Day 1 (6 hr) p.o.: −8%
  Reduction in Plasma Glucose Day 3 (6 hr) p.o.: −22%

## O=S(=O)(Nc1cccc(CCOCc2csc(-c3ccc(Cl)cc3)n2)c1)C(F)(F)F [Example 53, N-(3-{2-[2-(4-Chloro-phenyl)-thiazol-4-ylmethoxy]-ethyl}-phenyl)-C,C,C-trifluoro-methanesulfonamide]
other
  melting point: 114 to 116 °C
[1]
  IC50: 10 µM
ob/ob (C57 B1/6J) mice [2]; 10 mg/kg p.o.
  Reduction in Plasma Glucose Day 1 (6 hr) p.o.: −36%
  Reduction in Plasma Glucose Day 3 (6 hr) p.o.: −26%

## COc1cc(COCCc2cccc(NS(=O)(=O)C(F)(F)F)c2)ccc1-c1ccc(Cl)cc1 [Example 88, N-{3-[2-(4′-Chloro-2-methoxy-biphenyl-4-ylmethoxy)-ethyl]-phenyl}-C,C,C-trifluoromethane sulfonamide]
other
  melting point: 88 to 90 °C
[1]
  IC50: 4 µM
ob/ob (C57 B1/6J) mice [2]; 25 mg/kg p.o.
  Reduction in Plasma Glucose Day 1 (6 hr) p.o.: −71
  Reduction in Plasma Glucose Day 3 (6 hr) p.o.: −29

## sodium metavanadate
ob/ob (C57 B1/6J) mice [3]
  lowering in plasma glucose: significant lowering in plasma glucose
